Experiment [1] concerns the target T1, NhCam1 (cyclic oligoadenylate-activated membrane protein 1; WP_013033759) (Nitrosococcus halophilus, UniProt D5BXZ3, T97A).
T1 construct: gene Nhal_2839; CARF domain, residues 67–206
Put plainly: ITC. The format is binding.

Experiment [2] deals with T2, NhCam1 (cyclic oligoadenylate-activated membrane protein 1; WP_013033759) (Nitrosococcus halophilus, UniProt D5BXZ3, T183A/Y180A).
T2 construct: gene Nhal_2839; CARF domain, residues 67–206
The experiment in a line: ITC. The experiment is classed as binding.

For experiment [3], the target named is T3, NhCam1 (cyclic oligoadenylate-activated membrane protein 1; WP_013033759) (Nitrosococcus halophilus, UniProt D5BXZ3).
T3 construct: gene Nhal_2839; CARF domain, residues 67–206 (ITC; Methods: 66–206); residues 42–206 (crystal); homodimer, one ligand per dimer
T3 sequence (D5BXZ3 67-206): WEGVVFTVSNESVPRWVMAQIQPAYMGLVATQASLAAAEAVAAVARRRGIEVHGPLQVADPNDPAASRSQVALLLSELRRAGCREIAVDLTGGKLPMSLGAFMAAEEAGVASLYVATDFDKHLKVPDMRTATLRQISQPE
Put plainly: ITC; […] Å X-ray crystal structure. The format is binding.

Experiment [4] has as its target T4, NhCam1 (cyclic oligoadenylate-activated membrane protein 1; WP_013033759) (Nitrosococcus halophilus, UniProt D5BXZ3, M194A/P192A/V79A).
T4 construct: gene Nhal_2839; CARF domain, residues 67–206
The experiment in a line: ITC. The format is binding.

The target in experiment [5] is T5, NhCam1 (cyclic oligoadenylate-activated membrane protein 1; WP_013033759) (Nitrosococcus halophilus, UniProt D5BXZ3, N76A/S75A).
T5 construct: gene Nhal_2839; CARF domain, residues 67–206
Put plainly: ITC. The experiment is classed as binding.

Experiment [6] addresses MGSS–His6–TEV–NhCam1 (full-length NhCam1) (Nitrosococcus halophilus Nc4). Put plainly: SEC-MALS; full-length Cam1 in DDM micelles, conjugate analysis; 25 mM Tris pH 8, 500 mM NaCl, 2 mM β-mercaptoethanol, 0.02% DDM. On the technique in general: SEC sorts molecules by how far they enter the pores of the column.
In experiment [7] the target is MvCam1-His (Methylomarium vadi). Put plainly: cross-linking; in vivo in S. aureus, 2 mM DSS and BMH, 1 h at room temperature, with or without aTc; Western blot of lysates with anti-His6. A general note: A western blot detects proteins with antibodies after separation by electrophoresis.
Experiment [8] has as its target NhCam1–His (Nitrosococcus halophilus Nc4). The description is as above.
The target in experiment [9] is gpCam1-His (unknown Gammaproteobacterium). The description is as above.

Where “and” joins values, the source holds several entries; their conditions need not be identical. Identical values can stand only once.

Kd and stoichiometry N data for 5 compounds are collected here from publication PMC10808066, “The CRISPR effector Cam1 mediates membrane depolarization for phage defence” (Nature, 2024).

The Kd is the constant that tells how readily two partners part at equilibrium. Consider `Nc1ncnc2c1ncn2[C@@H]1O[C@@H]2COP(=O)(O)O[C@H]3[C@@H](O)[C@H](n4cnc5c(N)ncnc54)O[C@@H]3COP(=O)(O)O[C@H]3[C@@H](O)[C@H](n4cnc5c(N)ncnc54)O[C@@H]3COP(=O)(O)O[C@H]3[C@@H](O)[C@H](n4cnc5c(N)ncnc54)O[C@@H]3COP(=O)(O)O[C@H]2[C@H]1O` [cA4], for which the Kd in experiment [1] came to 3.74 µM; in experiment [2] it was 4.5 µM; in experiment [3], 0.012 µM; in [4] it was 2.1 µM; in [5], 4 µM.

For orientation: stoichiometry N means a count of units in the complex or per binding partner. Compound “MGSS–His6–TEV–NhCam1 (full-length NhCam1) (natural protein)” showed a stoichiometry N in [6] of 4.

As for MvCam1-His (natural protein), in [7], the stoichiometry N is 2 and 4.

Consider NhCam1–His (natural protein), for which the stoichiometry N in experiment [8] was 2 and 4.

As to gpCam1-His (natural protein), the stoichiometry N in experiment [9] was 2 and 4.
